Test results taken from patent publication US20240384268A1, “Oligonucleotides” (Hudson Institute of Medical Research, priority 2021, published 2024).

Biological target: T1, human TLR9 (Homo sapiens, UniProt Q9NR96)
T1 construct: HA; host or cells: 293XL-hTLR9-HA (HEK293)
T1 sequence (Q9NR96 26-1032): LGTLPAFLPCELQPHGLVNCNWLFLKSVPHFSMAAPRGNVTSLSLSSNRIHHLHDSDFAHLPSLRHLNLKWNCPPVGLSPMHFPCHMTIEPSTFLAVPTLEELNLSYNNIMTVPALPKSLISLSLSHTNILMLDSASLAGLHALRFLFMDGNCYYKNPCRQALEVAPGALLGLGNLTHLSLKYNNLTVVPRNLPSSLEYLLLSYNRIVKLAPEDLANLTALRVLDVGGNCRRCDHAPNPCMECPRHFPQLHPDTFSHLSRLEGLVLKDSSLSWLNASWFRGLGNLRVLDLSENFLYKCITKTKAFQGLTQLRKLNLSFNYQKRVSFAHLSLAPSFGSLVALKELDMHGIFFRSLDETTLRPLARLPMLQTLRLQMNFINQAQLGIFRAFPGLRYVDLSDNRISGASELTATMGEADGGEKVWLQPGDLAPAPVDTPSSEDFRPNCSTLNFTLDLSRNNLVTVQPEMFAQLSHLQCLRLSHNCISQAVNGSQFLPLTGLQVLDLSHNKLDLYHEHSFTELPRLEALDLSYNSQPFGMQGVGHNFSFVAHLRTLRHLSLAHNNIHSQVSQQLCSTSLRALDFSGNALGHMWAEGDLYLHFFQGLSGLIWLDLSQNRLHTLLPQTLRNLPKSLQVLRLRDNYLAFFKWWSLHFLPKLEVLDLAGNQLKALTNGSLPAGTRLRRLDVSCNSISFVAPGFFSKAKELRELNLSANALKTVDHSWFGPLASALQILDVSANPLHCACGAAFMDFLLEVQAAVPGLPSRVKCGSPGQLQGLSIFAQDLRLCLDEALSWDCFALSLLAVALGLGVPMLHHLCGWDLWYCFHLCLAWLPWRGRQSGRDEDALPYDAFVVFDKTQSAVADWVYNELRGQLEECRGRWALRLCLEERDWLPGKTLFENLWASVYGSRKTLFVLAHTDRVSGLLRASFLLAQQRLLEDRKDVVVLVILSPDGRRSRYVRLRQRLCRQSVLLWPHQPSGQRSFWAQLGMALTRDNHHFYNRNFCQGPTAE
Experiment: HEK-TLR9 NF-κB-luciferase reporter, ODN2006 stimulation
Assay type: cell-based
Details: averaged NF-κB-Luciferase relative to ODN2006 condition; for TLR9 100 nM: MOE-modified ASO at 100 nM; for TLR9 500 nM: MOE-modified ASO at 500 nM

Sequence	TLR9 100 nM	TLR9 500 nM
GAGGTCTTGGCTTCGTGGAG (antisense; 2'-MOE modified, pattern not given here) [MB21D1-523 MOE]	0.888	0.650
TAGTCAAGGGCATATCCTAC (antisense; 2'-MOE modified, pattern not given here) [HPRT-732 MOE]	0.787	0.462
GAACCACGTCTGCTCTAACA (antisense; 2'-MOE modified, pattern not given here) [CAMSAP1-1635 MOE]	0.588	0.466
GGTCCATACCCAAGGCATCC (antisense; 2'-MOE modified, pattern not given here) [CTNN2B-2446 MOE]	0.687	0.453
GGAGGTCTTGGCTTCGTGGA (antisense; 2'-MOE modified, pattern not given here) [MB21D1-524 MOE]	0.466	0.342
AATCCGCCCAAAGGGAACTG (antisense; 2'-MOE modified, pattern not given here) [HPRT-1027 MOE]	0.591	0.591
AGATCTGGCAGCCCATCAAC (antisense; 2'-MOE modified, pattern not given here) [CTNN2B-2516 MOE]	0.607	0.268
GTCCTTGCACGTGGCTTCGT (antisense; 2'-MOE modified, pattern not given here) [EGFR-1013 MOE]	0.682	0.602
TAGGCACTTTGCCTCCTTCT (antisense; 2'-MOE modified, pattern not given here) [EGFR-2859 MOE]	0.808	0.914
ATGTGATGGCCTCCCATCTC (antisense; 2'-MOE modified, pattern not given here) [HPRT-333 MOE]	0.900	0.918
GCGTGTCTGGAAGCTTCCTT (antisense; 2'-MOE modified, pattern not given here) [CTNN2B-809 MOE]	0.263	0.229
CAACACTTCGTGGGGTCCTT (antisense; 2'-MOE modified, pattern not given here) [HPRT-665 MOE]	0.858	0.619
GTGTCTTCATCGGCCCTGCC (antisense; 2'-MOE modified, pattern not given here) [CAMSAP1-2113 MOE]	0.611	0.201
ACAGTGTTGAGATACTCGGG (antisense; 2'-MOE modified, pattern not given here) [EGFR-3652 MOE]	0.436	0.194
GCGTATTATAGCCGATTAAC (antisense; 2'-MOE modified, pattern not given here) [NC1 2′MOE]	0.460	0.064
CAATGTGATGGCCTCCCATC (antisense; 2'-MOE modified, pattern not given here) [HPRT-335 MOE]	0.614	0.412
GGGAAAGGTTATGCAAGGTC (antisense; 2'-MOE modified, pattern not given here) [CTNN2B-916 MOE]	0.521	0.505
GCCGCTTTTCTGTCTGGTTC (antisense; 2'-MOE modified, pattern not given here) [CTNN2B-311 MOE]	0.684	1.018
ACTGACTGTCTTGAGGGTTC (antisense; 2'-MOE modified, pattern not given here) [MB21D1-1483 MOE]	0.424	0.291
TCGCACTTCAGTCTGAGCAG (antisense; 2'-MOE modified, pattern not given here) [MB21D1-719 MOE]	0.521	0.266
CAAGGCCCTTCGCACTTCTT (antisense; 2'-MOE modified, pattern not given here) [EGFR-1225 MOE]	0.624	0.712
GGAGATTTCAGAGCAGCTTC (antisense; 2'-MOE modified, pattern not given here) [EGFR-4885 MOE]	0.541	0.381

Sequence	TLR9 100 nM	TLR9 500 nM
GGTGTCCTTGCACGTGGCTT (antisense; 2'-MOE modified, pattern not given here) [EGFR-1016 MOE]	1.064	0.714
GTGTCCTTGCACGTGGCTTC (antisense; 2'-MOE modified, pattern not given here) [EGFR-1015 MOE]	0.784	0.641
AACACTTCGTGGGGTCCTTT (antisense; 2'-MOE modified, pattern not given here) [HPRT-664 MOE]	0.426	0.402
CTGTGATCTTGACATGCTGC (antisense; 2'-MOE modified, pattern not given here) [EGFR-2790 MOE]	0.506	0.298
GTCCACATCCTGTGGCTCGT (antisense; 2'-MOE modified, pattern not given here) [CAMSAP1-2906 MOE]	0.559	0.254
GATGCTCCTCGGTCTCCCTT (antisense; 2'-MOE modified, pattern not given here) [CAMSAP1-1850 MOE]	0.792	0.196
CGTGTCTGGAAGCTTCCTTT (antisense; 2'-MOE modified, pattern not given here) [CTNN2B-808 MOE]	0.568	0.259
GAGTCTCTGGAGCTTCCTCT (antisense; 2'-MOE modified, pattern not given here) [CAMSAP1-2456 MOE]	0.594	0.127
GATGGCCTCCCATCTCCTTC (antisense; 2'-MOE modified, pattern not given here) [HPRT-329 MOE]	0.662	1.268
GGAGCTTCGAGGCCCCAGGC (MOE modified, pattern not given here) [MB21D1-616 MOE]	0.588	0.168
TTCTGCAGCTTCCTTGTCCT (antisense; 2'-MOE modified, pattern not given here) [CTNN2B-2136 MOE]	0.746	0.467
CTTACTTTCCGAGGTGTCCA (antisense; 2'-MOE modified, pattern not given here) [CAMSAP1-1739 MOE]	0.647	0.531
GCGACTATACGCGCAATATG (antisense; 2'-MOE modified, pattern not given here) [NC5 2′MOE]	0.395	0.035
CCAACACTTCGTGGGGTCCT (antisense; 2'-MOE modified, pattern not given here) [HPRT-666 MOE]	0.612	0.600
TTGCCATGCTGGCTCGGACT (antisense; 2'-MOE modified, pattern not given here) [CAMSAP1-2584 MOE]	0.516	0.534
CAGATAGCACCTTCAGCACT (antisense; 2'-MOE modified, pattern not given here) [CTNN2B-1294 MOE]	0.583	0.484
GGCATCCACCACGTCGTCCA (antisense; 2'-MOE modified, pattern not given here) [EGFR-3266 MOE]	0.742	0.481
TGTGATGGCCTCCCATCTCC (antisense; 2'-MOE modified, pattern not given here) [HPRT-332 MOE]	0.674	0.782
AGGTCTTGGCTTCGTGGAGC (antisense; 2'-MOE modified, pattern not given here) [MB21D1-522 MOE]	0.568	0.280
TCCAACACTTCGTGGGGTCC (antisense; 2'-MOE modified, pattern not given here) [HPRT-667 MOE]	0.792	0.616
CACCCACTTGGCAGACCATC (antisense; 2'-MOE modified, pattern not given here) [CTNN2B-1576 MOE]	0.665	0.677
